Reference: US20230381172A1, “COMBINATIONS OF BCL-2 INHIBITORS WITH CHEMOTHERAPEUTIC AGENTS” (RECURIUM IP HOLDINGS, LLC, priority 2020, published 2023)

Key:
HL-60 cells = assay: In vitro cell assay, CellTiter-Glo cell viability, HL-60; type: cell-based, human; conditions: 10,000 HL-60 cells, 72 h, CTG; 150 nM Compound 5A, 5,000 nM azacitidine, single agent or combination of both
Procedure: (§1) The cells were incubated with the indicated compound at the indicated concentration as described below. The combination indices (CI) were calculated using formula […]. A and B are the percent cell inhibition by single agent treatment, and AB is the percent cell inhibition by the combination.
(§2) For each cell line, the cell viability was assessed using a CellTiter-Glo® (CTG) assay.

MOLM-13 cells = assay: In vitro cell assay, CellTiter-Glo cell viability, MOLM-13; type: cell-based; conditions: 20,000 MOLM-13 cells, 72 h, CTG; 5 nM Compound 5A, 1,500 nM azacitidine, single agent or combination of both
Procedure: as §1, §2

MV4-11 cells = assay: In vitro cell assay, CellTiter-Glo cell viability, MV4-11; type: cell-based; conditions: 20,000 MV4-11 cells, 72 h, CTG; 25 nM Compound 5A, 2,272 nM azacitidine, single agent or combination of both
Procedure: as §1, §2

[1] = test system: HL-60 cells (human myeloid leukemia cell line); assay: In vivo efficacy, HL-60 leukemia xenograft model (azacitidine combination, FIG. 5); conditions: HL-60 s.c. xenograft in mice; Compound 5A 50 mg/kg p.o. qd×19; Azacitidine 2.5 mg/kg i.p. qd 5 days on 2 days off; alone or combined
Procedure: Mice were inoculated with HL-60 cells (human myeloid leukemia cell line) subcutaneously on the right flank with the single cell suspension of 95% viable tumor cells (1×10^7) in 100 μL IMDM Matrigel mixture (1:1 ratio) without serum for the tumor development. The treatment was started when the mean tumor size reached approximately 222 mm^3, with individual tumor size ranging from 185-245 mm^3. Animals were randomly distributed into treatment groups of 10 animals each and dosed with vehicle and indicated compounds at indicated dosage and frequency shown in FIG. 5 and Table 3. In FIG. 5, the top line (indicated with circles) is Vehicle control, the second from the top line (indicated with triangles) is Azacitidine (2.5 mg/kg 5 mL/kg i.p. qd (5 days on, 2 days off,)), the second from the bottom line (indicated with circles) is Compound 5A (50 mg/kg 10 mL/kg p.o. qd×19) and the bottom line (indicated with triangles) is Compound 5A (50 mg/kg p.o. qd×19)+Azacitidine (2.5 mg/kg i.p. qd 5×3 (5 days on 2 days off)). Tumor volumes were evaluated twice per week to calculate tumor volume over time, and mice were weighed twice per week as a surrogate for signs of toxicity. Tumor growth inhibition (TGI) was calculated using the following equation TGI=(1-(Td−T0)/(Cd−C0))×100%. […]

RS4;11 cells = assay: In vitro cell assay, CellTiter-Glo cell viability, RS4;11; type: cell-based; conditions: 50,000 RS4;11 cells, 72 h, CTG; 5 nM Compound 5A, 1,500 nM azacitidine, single agent or combination of both
Procedure: as §1, §2

[2] = test system: DOHH cells (non-Hodgkin's cell line); assay: In vivo efficacy, DOHH non-Hodgkin's model (bendamustine combination, FIG. 8); conditions: DOHH s.c. xenograft in mice; Compound 5A 100 mg/kg p.o. qd×13; Bendamustine 25 mg/kg i.v. qd×1; alone or combined
Procedure: Tumor volumes were evaluated twice per week to calculate tumor volume over time, and mice were weighed twice per week as a surrogate for signs of toxicity. Tumor growth inhibition (TGI) was calculated using the following equation TGI=(1−(Td−T0)/(Cd−C0))×100%. Td and Cd are the mean tumor volumes of the treated and control animals, and T0 and C0 are the mean tumor volumes of the treated and control animals at the start of the experiment. The tumor regression was defined as individual tumor volume (TV) decrease (terminal TV compared to initial TV).

KMS-12-BM cells = assay: In vivo efficacy, KMS-12-BM model (bortezomib combination, FIG. 7); conditions: KMS-12-BM s.c. xenograft in mice; Compound 5A 50 mg/kg p.o. qd×21; Bortezomib 0.5 mg/kg i.p. BIW; alone or combined
Procedure: Mice were inoculated with KMS-12-BM cells ([…]) subcutaneously on the right flank with the single cell suspension of 95% viable tumor cells (1×10^7) in 100 μL IMDM Matrigel mixture (1:1 ratio) without serum for the tumor development. The treatment was started when the mean tumor size reached approximately 222 mm^3, with individual tumor size ranging from 185-245 mm^3. Animals were randomly distributed into treatment groups of 10 animals each and dosed with vehicle and indicated compounds at indicated dosage and frequency shown in FIG. 7 and Table 3. In FIG. 7, the top line (indicated with diamonds) is Vehicle control, the second from the top line (indicated with squares) is Compound 5A (50 mg/kg), the second from the bottom line (indicated with “x”) is Bortezomib (0.5 mg/kg) and the bottom line ([…]). Tumor volumes were evaluated twice per week to calculate tumor volume over time, and mice were weighed twice per week as a surrogate for signs of toxicity. Tumor growth inhibition (TGI) was calculated using the following equation TGI=(1−(Td−T0)/(Cd−C0))×100%. Td and Cd are the mean tumor volumes of the treated and control animals, and T0 and C0 are the mean tumor volumes of the treated and control animals at the start of the experiment. The tumor regression was defined as individual tumor volume (TV) decrease (terminal TV compared to initial TV).

[3] = test system: HL-60 cells (human myeloid leukemia cell line); assay: In vivo efficacy, HL-60 leukemia xenograft model (cytarabine combination, FIG. 6); conditions: HL-60 s.c. xenograft in mice; Compound 5A 25 mg/kg p.o. qd×19; Cytarabine 5 mg/kg i.p. qd 5 days on 2 days off; alone or combined
Procedure: Mice were inoculated with HL-60 cells (human myeloid leukemia cell line) subcutaneously on the right flank with the single cell suspension of 95% viable tumor cells (1×10^7) in 100 μL IMDM Matrigel mixture (1:1 ratio) without serum for the tumor development. The treatment was started when the mean tumor size reached approximately 218 mm^3, with individual tumor size ranging from 185-245 mm^3. Animals were randomly distributed into treatment groups of 10 animals each and dosed with vehicle and indicated compounds at indicated dosage and frequency shown in FIG. 6 and Table 3. In FIG. 6, the top line (indicated with triangles) is Cytarabine (5.0 mg/kg), the second from the top line (indicated with circles) is Vehicle control, the second from the bottom line (indicated with diamonds) is Compound 5A (25 mg/kg) and the bottom line (indicated with circles) is Compound 5A (25 mg/kg p.o. qd×19)+Cytarabine (5 mg/kg i.p. qd 5×3 (5 days on 2 days off)). Tumor volumes were evaluated twice per week to calculate tumor volume over time, and mice were weighed twice per week as a surrogate for signs of toxicity. Tumor growth inhibition (TGI) was calculated using the following equation TGI=(1−(Td−T0)/(Cd−C0))×100%. Td and Cd are the mean tumor volumes of the treated and control animals, and TO and CO are the mean tumor volumes of the treated and control animals at the start of the experiment. […]

Nc1ncn([C@@H]2O[C@H](CO)[C@@H](O)[C@H]2O)c(=O)n1 [Azacitidine, azacitidine]
HL60 % inhibition (HL-60 cells): 21.6% | MOLM-13 % inhibition (MOLM-13 cells): 47.0% | MV4;11 % inhibition (MV4-11 cells): 82.9% | TGI % Day 18 [1]: 11% | RS4;11 % inhibition (RS4;11 cells): 32.5%

Cn1c(CCCC(=O)O)nc2cc(N(CCCl)CCCl)ccc21 [Bendamustine]
TGI % Day 26 [2]: 44%

CC(C)C[C@H](NC(=O)[C@H](Cc1ccccc1)NC(=O)c1cnccn1)B(O)O [Bortezomib, bortezomib]
TGI % Day 14 (KMS-12-BM cells): 46%

Nc1ccn([C@@H]2O[C@H](CO)[C@@H](O)[C@@H]2O)c(=O)n1 [Cytarabine]
TGI % Day 18 [3]: −6%
